Measured values published in patent publication US20050256103A1, “Indole derivative having piperidine ring” (Eisai Co., Ltd., priority 2004, published 2005).
pIC50: −log10 of the molar value. Where two headings read alike, the source gives them in different places.

How the values were obtained:
5-HT1A receptor = biological target: T1, 5-HT1A receptor (Sus scrofa, UniProt A0A4X1UTF5); assay: Affinity for serotonin 1A receptor: inhibition of [3H]MPPF binding in swine hippocampal membrane fraction; settings: for pIC50: [3H]MPPF 0.5 nM, swine hippocampal membrane, 37°C 30 min; for L/H ratio: low affinity IC50 divided by high affinity IC50, 1 or smaller = no intrinsic activity, 2 or greater = intrinsic activity
T1 construct: Swine hippocampus was homogenized in a 50 mM Tris-Hcl buffer; from tissue; host or cells: swine hippocampus, membrane fraction
T1 sequence (A0A4X1UTF5 1-422): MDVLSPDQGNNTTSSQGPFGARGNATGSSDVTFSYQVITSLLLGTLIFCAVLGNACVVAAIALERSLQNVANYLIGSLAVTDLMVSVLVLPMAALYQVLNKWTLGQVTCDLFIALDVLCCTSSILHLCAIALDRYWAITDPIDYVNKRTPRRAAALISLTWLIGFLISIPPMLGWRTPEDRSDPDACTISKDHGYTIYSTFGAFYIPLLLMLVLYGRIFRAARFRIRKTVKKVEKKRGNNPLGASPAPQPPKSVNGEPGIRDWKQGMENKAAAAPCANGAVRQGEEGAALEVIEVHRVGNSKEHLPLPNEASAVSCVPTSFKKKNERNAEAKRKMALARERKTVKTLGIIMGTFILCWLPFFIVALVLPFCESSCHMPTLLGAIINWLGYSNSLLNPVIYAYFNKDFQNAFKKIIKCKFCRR
Summary of the method: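 Swine hippocampal membranes incubated 30 min at 37 °C with 0.5 nM [3H]MPPF and test compound in 50 mM Tris-HCl pH 7.4, 1% DMSO, with 10 mM MgCl2 (G-protein-coupled, high-affinity state) or 1 mM Gpp(NH)p (uncoupled, low-affinity state). Bound radioactivity measured by filtration and scintillation counting; nonspecific binding defined with 10 μM WAY-100,635. IC50 in each state; low/high IC50 ratio taken as an estimate of intrinsic activity.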

serotonin 1A receptor = biological target: T2, serotonin 1A receptor (Mus musculus, UniProt Q64264); assay: Antagonistic effect on serotonin 1A receptor agonist (8-OH-DPAT)-induced hypothermia in mouse; assay type: in vivo; settings: for ED50: CD-1 (ICR) male mice, inhibition of hypothermia by 8-OH-DPAT 0.5 mg/kg sc, test substance 15 minutes before agonist
T2 construct: into the rectum of CD-1 (ICR) male mice (25-45 g); from tissue; host or cells: living CD-1 (ICR) male mice (in vivo)
T2 sequence (Q64264 1-421): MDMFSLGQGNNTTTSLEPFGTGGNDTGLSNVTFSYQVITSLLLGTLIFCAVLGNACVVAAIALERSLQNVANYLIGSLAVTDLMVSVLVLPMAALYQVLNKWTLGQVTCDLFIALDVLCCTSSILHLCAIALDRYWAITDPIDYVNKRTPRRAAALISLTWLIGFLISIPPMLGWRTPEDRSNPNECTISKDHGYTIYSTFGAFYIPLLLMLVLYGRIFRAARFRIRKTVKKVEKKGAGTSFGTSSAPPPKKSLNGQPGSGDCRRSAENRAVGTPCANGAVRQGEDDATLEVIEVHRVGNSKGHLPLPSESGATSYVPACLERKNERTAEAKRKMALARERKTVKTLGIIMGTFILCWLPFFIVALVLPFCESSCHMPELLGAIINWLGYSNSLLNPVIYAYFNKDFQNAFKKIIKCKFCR
Summary of the method: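 CD-1 (ICR) male mice, 25-45 g; rectal temperature by thermistor probe at about 2 cm depth. Test substance given 15 min before s.c. 8-OH-DPAT […]; antagonism scored as inhibition of the induced hypothermia.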

[1] = system: urinary reflex of Sprague-Dawley female rats; assay: Inhibitory action against accentuated urinary reflex of rat due to destruction of the superior colliculus (cystometrogram); assay type: in vivo; settings: iv, rat with superior colliculus lesion
Text: (1) In the present test, Sprague-Dawley female rates (200-350 g) were used. The rats were subjected to median incision of the abdomen under anesthesia. Thereafter, a hole with a minor diameter was made on the head portion of the bladder, and a catheter used for measurement of an intravesical pressure was placed therein. A catheter used for administration of a test substance was placed in the femoral vein. These catheters were fixed at the occipital region of the rat through the subcutis. One day later, the urinary reflex of the rats was measured with a cystometrogram. Thereafter, the rats were fixed on a brain stereotaxis apparatus under anesthesia, and then subjected to median incision of the scalp. […] Thereafter, electric current was applied (65° C., 4 minutes), so as to damage the brain tissues. After completion of the operation, when the rat awakened from anesthesia, cystometrogram was conducted again to confirm the enhanced state of urinary reflex. A test substance was administered through the catheter placed in the femoral vein, and the action of the test substance to the urinary reflex was evaluated. In addition, the effects of several test substances were compared using the maximal reaction (Emax).

[2] = receptor in high affinity (G-protein binding, MgCl2 10 mM) state, read-out: High affinity IC50
[3] = receptor in low affinity (G-protein non-binding, Gpp(NH)p 1 mM) state, read-out: Low affinity IC50

pIC50 (5-HT1A receptor; [3]) | SMILES | pIC50 (5-HT1A receptor; [2]) | L/H ratio (5-HT1A receptor) | ED50 (serotonin 1A receptor) | Bladder capacity Emax ([1]; dose 0.03 mg/kg) [%] | pIC50 (5-HT1A receptor; read-out: Low affinity IC50, receptor in low affinity (G-protein non-binding, Gpp(NH)p 1 mM) state) | affinity for 5-HT1A (5-HT1A receptor; result in words) | antagonistic effect against the receptor (serotonin 1A receptor; result in words) | Bladder capacity Emax ([1]; dose 0.01 mg/kg) [%]
9.47 | COc1ccc2nc(C)oc2c1CCN1CCC(n2ccc3ccc(C(N)=O)cc32)CC1 [Compound 3, 1-{1-[2-(6-methoxy-2-methylbenzoxazol-7-yl)ethyl]piperidin-4-yl}-1H-indole-6-carboxamide] | 9.34 | 0.7 | 0.18 mg/kg, sc | 62 | – | – | – | –
– | NC(=O)c1ccc2ccn(C3CCN(CCc4ccc(F)cc4)CC3)c2c1 [Compound A, reference compound] | 10.00 | 3.7 | >1 mg/kg, sc | – | 9.30 | has affinity | weak | −36
9.60 | COc1ccc2c(c1CCN1CCC(n3ccc4ccc(C(N)=O)cc43)CC1)OCCO2 [Compound 32, 1-{1-[2-(6-methoxy-2,3-dihydrobenz[1,4]dioxin-5-yl)ethyl]piperidin-4-yl}-1H-indole-6-carboxamide] | 9.59 | 1 | 0.04 mg/kg, sc | – | – | – | – | –

SMILES | pIC50 (5-HT1A receptor; [3]) | pIC50 (5-HT1A receptor; [2]) | L/H ratio (5-HT1A receptor) | ED50 (serotonin 1A receptor) | Bladder capacity Emax ([1]; dose 0.03 mg/kg) [%] | pIC50 (5-HT1A receptor; read-out: Low affinity IC50, receptor in low affinity (G-protein non-binding, Gpp(NH)p 1 mM) state) | affinity for 5-HT1A (5-HT1A receptor; result in words) | antagonistic effect against the receptor (serotonin 1A receptor; result in words) | Bladder capacity Emax ([1]; dose 0.01 mg/kg) [%]
COc1cc2oc(C)nc2cc1CCN1CCC(n2ccc3ccc(C(N)=O)cc32)CC1 [Compound 4, 1-{1-[2-(6-methoxy-2-methylbenzoxazol-5-yl)ethyl]piperidin-4-yl}-1H-indole-6-carboxamide] | 9.82 | 9.77 | 0.9 | 0.1 mg/kg, sc | 107 | – | – | – | –
